Test results: US11998539B2, “Substituted aminoquinolones as DGKalpha inhibitors for immune activation” (Bayer Aktiengesellschaft, priority 2019, dated 2024)

target: DGKα (Homo sapiens (Human), UniProt P23743); assay: Human DGKα kinase activity inhibition assay (ADP-Glo); type: biochemical; conditions: recombinant full-length human DGKα, 55 μM ATP, 7 μM 1,2-dioleoyl-sn-glycerol, read-out: IC50 values of examples in in vitro human DGKa kinase activity inhibition assays
Method in brief: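 Activity was measured as ADP production, detected by luciferase luminescence after removal of unused ATP. The enzyme was baculovirus-expressed full-length human DGKα with a C-terminal FLAG tag. The substrate was 1,2-dioleoyl-sn-glycerol in detergent micelles, and compounds came from 100× DMSO solutions.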

Sequence of DGKα (P23743 other isoform, or with tags, fused parts or gaps): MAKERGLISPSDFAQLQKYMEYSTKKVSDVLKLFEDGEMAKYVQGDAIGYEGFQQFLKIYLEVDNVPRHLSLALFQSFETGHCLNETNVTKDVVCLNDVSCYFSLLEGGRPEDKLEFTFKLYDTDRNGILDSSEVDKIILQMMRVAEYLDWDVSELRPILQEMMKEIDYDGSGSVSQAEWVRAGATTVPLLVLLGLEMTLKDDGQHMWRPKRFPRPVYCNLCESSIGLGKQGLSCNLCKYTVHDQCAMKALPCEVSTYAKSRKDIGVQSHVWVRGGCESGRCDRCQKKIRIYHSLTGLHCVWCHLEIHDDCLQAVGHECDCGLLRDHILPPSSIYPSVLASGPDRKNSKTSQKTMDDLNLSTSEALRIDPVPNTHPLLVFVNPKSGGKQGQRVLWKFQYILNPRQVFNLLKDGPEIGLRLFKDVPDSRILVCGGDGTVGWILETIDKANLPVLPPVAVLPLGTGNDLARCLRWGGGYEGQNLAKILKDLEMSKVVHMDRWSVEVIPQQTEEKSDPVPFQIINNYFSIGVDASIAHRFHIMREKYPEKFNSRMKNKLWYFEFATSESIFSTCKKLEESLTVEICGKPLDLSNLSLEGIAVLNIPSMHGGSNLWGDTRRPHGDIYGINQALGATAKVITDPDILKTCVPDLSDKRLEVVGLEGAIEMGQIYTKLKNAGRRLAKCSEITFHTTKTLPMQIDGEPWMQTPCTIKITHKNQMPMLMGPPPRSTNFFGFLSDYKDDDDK

`Cn1c(=O)c(C(N)=O)c(N2CCC(c3ccc(OC(F)(F)F)cc3)CC2)c2ccccc21` [Example 108, 1-methyl-2-oxo-4-{4-[4-(trifluoromethoxy)phenyl]piperidin-1-yl}-1,2-dihydroquinoline-3-carboxamide] was tested. Which IC50 did it give?
Its IC50 is 1.8 nM.

How did the IC50 turn out when `Cn1c(=O)c(C(N)=O)c(N2CCC(c3nc4cc(F)c(F)cc4o3)CC2)c2ccccc21` [Example 109, 4-[4-(5,6-difluoro-1,3-benzoxazol-2-yl)piperidin-1-yl]-1-methyl-2-oxo-1,2-dihydroquinoline-3-carboxamide] was run?
The IC50 was 2.1 nM.

How did the IC50 turn out when `Cc1ccc2oc(C3(C)CCN(c4c(C#N)c(=O)n(C)c5cc(Br)ccc45)CC3)nc2c1` [Example 110, 7-bromo-1-methyl-4-[4-methyl-4-(5-methyl-1,3-benzoxazol-2-yl)piperidin-1-yl]-2-oxo-1,2-dihydroquinoline-3-carbonitrile] was run?
Its IC50 is 2.6 nM.

For `COc1ccc(C2CCN(c3c(C(N)=O)c(=O)n(C)c4ccccc34)CC2)cc1` [Example 112, 4-[4-(4-methoxyphenyl)piperidin-1-yl]-1-methyl-2-oxo-1,2-dihydroquinoline-3-carboxamide], which IC50 is on record?
Its IC50 is 4.5 nM.

`Cn1c(=O)c(C(N)=O)c(N2CCC(c3nc4ccccc4s3)CC2)c2ccccc21` [Example 113, 4-[4-(1,3-benzothiazol-2-yl)piperidin-1-yl]-1-methyl-2-oxo-1,2-dihydroquinoline-3-carboxamide] was tested. Which IC50 did it give?
The IC50 was 3.5 nM.

Which IC50 does the source give for `Cn1c(=O)c(C(N)=O)c(N2CCC(c3ccccc3)CC2)c2ccccc21` [Example 114, 1-methyl-2-oxo-4-(4-phenylpiperidin-1-yl)-1,2-dihydroquinoline-3-carboxamide] here?
Its IC50 is 15 nM.

With `COc1ccc(C2CCN(c3c(C(N)=O)c(=O)n(C)c4cc(C5COC5)ccc34)CC2)cc1` [Example 115, 4-[4-(4-methoxyphenyl)piperidin-1-yl]-1-methyl-7-(oxetan-3-yl)-2-oxo-1,2-dihydroquinoline-3-carboxamide] as the compound, how does the IC50 read?
Its IC50 is 20 nM.

`Cn1c(=O)c(C(N)=O)c(N2CCC(c3nc4ccccc4s3)CC2)c2ccc(N3CCCC3=O)cc21` [Example 116, 4-[4-(1,3-benzothiazol-2-yl)piperidin-1-yl]-1-methyl-2-oxo-7-(2-oxopyrrolidin-1-yl)-1,2-dihydroquinoline-3-carboxamide] was tested. Which IC50 did it give?
Its IC50 is 36 nM.

How did the IC50 turn out when `CCC1(c2nc3cc(C)ccc3o2)CCN(c2c(C#N)c(=O)n(C)c3ccccc23)CC1` [Example 140, 4-[4-ethyl-4-(5-methyl-1,3-benzoxazol-2-yl)piperidin-1-yl]-1-methyl-2-oxo-1,2-dihydroquinoline-3-carbonitrile] was run?
The IC50 was 1.6 nM.

Which IC50 does the source give for `CCC1(c2nc3cc(C)ccc3o2)CCN(c2c(C#N)c(=O)n(C)c3cc(Br)ccc23)CC1` [Example 141, 7-bromo-4-[4-ethyl-4-(5-methyl-1,3-benzoxazol-2-yl)piperidin-1-yl]-1-methyl-2-oxo-1,2-dihydroquinoline-3-carbonitrile] here?
Its IC50 is 5.6 nM.

With `COc1ccc(C2CCN(c3c(C#N)c(=O)n(C)c4ccccc34)CC2)cn1` [Example 142, 4-[4-(6-methoxypyridin-3-yl)piperidin-1-yl]-1-methyl-2-oxo-1,2-dihydroquinoline-3-carbonitrile] as the compound, how does the IC50 read?
The IC50 was 58 nM.

How did the IC50 turn out when `Cc1ccc(C2CCN(c3c(C#N)c(=O)n(C)c4ccccc34)CC2)cn1` [Example 143, 1-methyl-4-[4-(6-methylpyridin-3-yl)piperidin-1-yl]-2-oxo-1,2-dihydroquinoline-3-carbonitrile] was run?
Its IC50 is 554 nM.

Which IC50 does the source give for `Cn1c(=O)c(C#N)c(N2CCC(c3cccnc3)CC2)c2ccccc21` [Example 144, 1-methyl-2-oxo-4-[4-(pyridin-3-yl)piperidin-1-yl]-1,2-dihydroquinoline-3-carbonitrile] here?
Its IC50 is 897 nM.

For `CNC(=O)c1c(N2CCC(c3nc4ccccc4s3)CC2)c2ccccc2n(C)c1=O` [Example 145, 4-[4-(1,3-benzothiazol-2-yl)piperidin-1-yl]-N,1-dimethyl-2-oxo-1,2-dihydroquinoline-3-carboxamide], which IC50 is on record?
Its IC50 is 41 nM.

For `Cn1c(C2CCN(c3c(C#N)c(=O)n(C)c4ccccc34)CC2)nc2ccccc21` [Example 147, 1-methyl-4-[4-(1-methyl-1H-benzimidazol-2-yl)piperidin-1-yl]-2-oxo-1,2-dihydroquinoline-3-carbonitrile], which IC50 is on record?
The IC50 was 358 nM.

For `CCCc1noc(C2CCN(c3c(C#N)c(=O)n(C)c4ccccc34)CC2)n1` [Example 148, 1-methyl-2-oxo-4-[4-(3-propyl-1,2,4-oxadiazol-5-yl)piperidin-1-yl]-1,2-dihydroquinoline-3-carbonitrile], which IC50 is on record?
The IC50 was 369 nM.

Which IC50 does the source give for `Cn1nccc1C1CCN(c2c(C#N)c(=O)n(C)c3ccccc23)CC1` [Example 149, 1-methyl-4-[4-(1-methyl-1H-pyrazol-5-yl)piperidin-1-yl]-2-oxo-1,2-dihydroquinoline-3-carbonitrile] here?
The IC50 was 1100 nM.

`Cn1c(=O)c(C#N)c(N2CCC(c3cnccn3)CC2)c2ccccc21` [Example 150, 1-methyl-2-oxo-4-[4-(pyrazin-2-yl)piperidin-1-yl]-1,2-dihydroquinoline-3-carbonitrile] was tested. Which IC50 did it give?
The IC50 was 1530 nM.

`Cn1c(=O)c(C#N)c(N2CCC(O)(c3ccc(Cl)cc3)CC2)c2ccccc21` [Example 151, 4-[4-(4-chlorophenyl)-4-hydroxypiperidin-1-yl]-1-methyl-2-oxo-1,2-dihydroquinoline-3-carbonitrile] was tested. Which IC50 did it give?
The IC50 was 486 nM.

Which IC50 does the source give for `Cn1c(=O)c(C#N)c(N2CCC(O)(c3cccc(C(F)(F)F)c3)CC2)c2ccccc21` [Example 152, 4-{4-hydroxy-4-[3-(trifluoromethyl)phenyl]piperidin-1-yl}-1-methyl-2-oxo-1,2-dihydroquinoline-3-carbonitrile] here?
Its IC50 is 1070 nM.

`COc1ccc(C2CCN(c3c(C#N)c(=O)n(C)c4c(F)cccc34)CC2)cc1` [Example 153, 8-fluoro-4-[4-(4-methoxyphenyl)piperidin-1-yl]-1-methyl-2-oxo-1,2-dihydroquinoline-3-carbonitrile] was tested. Which IC50 did it give?
Its IC50 is 45 nM.

`Cn1c(=O)c(C#N)c(N2CCC(c3nc4ccccc4s3)CC2)c2cccc(F)c21` [Example 154, 4-[4-(1,3-benzothiazol-2-yl)piperidin-1-yl]-8-fluoro-1-methyl-2-oxo-1,2-dihydroquinoline-3-carbonitrile] was tested. Which IC50 did it give?
The IC50 was 34 nM.

Which IC50 does the source give for `Cn1c(=O)c(C#N)c(N2CCC(c3nc4ccccc4o3)CC2)c2cccc(F)c21` [Example 155, 4-[4-(1,3-benzoxazol-2-yl)piperidin-1-yl]-8-fluoro-1-methyl-2-oxo-1,2-dihydroquinoline-3-carbonitrile] here?
Its IC50 is 60 nM.

For `Cn1c(=O)c(C#N)c(N2CCC(C)(c3nc4ccccc4o3)CC2)c2cccc(Br)c21` [Example 156, 4-[4-(1,3-benzoxazol-2-yl)-4-methylpiperidin-1-yl]-8-bromo-1-methyl-2-oxo-1,2-dihydroquinoline-3-carbonitrile], which IC50 is on record?
The IC50 was 182 nM.

Which IC50 does the source give for `Cn1c(=O)c(C#N)c(N2CCC(c3nc4ccc(Cl)cc4o3)CC2)c2cccc(Br)c21` [Example 157, 8-bromo-4-[4-(6-chloro-1,3-benzoxazol-2-yl)piperidin-1-yl]-1-methyl-2-oxo-1,2-dihydroquinoline-3-carbonitrile] here?
The IC50 was 252 nM.

How did the IC50 turn out when `Cc1ccc2oc(C3(C)CCN(c4c(C#N)c(=O)n(C)c5c(Br)cccc45)CC3)nc2c1` [Example 158, 8-bromo-1-methyl-4-[4-methyl-4-(5-methyl-1,3-benzoxazol-2-yl)piperidin-1-yl]-2-oxo-1,2-dihydroquinoline-3-carbonitrile] was run?
Its IC50 is 304 nM.

For `Cn1c(=O)c(C#N)c(N2CCC(c3nc4cc(Cl)ccc4o3)CC2)c2cccc(Br)c21` [Example 159, 8-bromo-4-[4-(5-chloro-1,3-benzoxazol-2-yl)piperidin-1-yl]-1-methyl-2-oxo-1,2-dihydroquinoline-3-carbonitrile], which IC50 is on record?
The IC50 was 383 nM.

`Cn1c(=O)c(C#N)c(N2CCC(c3nc4cc(F)c(F)cc4o3)CC2)c2cccc(Br)c21` [Example 160, 8-bromo-4-[4-(5,6-difluoro-1,3-benzoxazol-2-yl)piperidin-1-yl]-1-methyl-2-oxo-1,2-dihydroquinoline-3-carbonitrile] was tested. Which IC50 did it give?
Its IC50 is 544 nM.

`Cn1c(=O)c(C#N)c(N2CCC(c3nc4ccccc4o3)CC2)c2cccc(Br)c21` [Example 161, 4-[4-(1,3-benzoxazol-2-yl)piperidin-1-yl]-8-bromo-1-methyl-2-oxo-1,2-dihydroquinoline-3-carbonitrile] was tested. Which IC50 did it give?
Its IC50 is 1100 nM.

Which IC50 does the source give for `Cn1c(=O)c(C#N)c(N2CCC(c3nc4ccccc4o3)CC2)c2cccc(Cl)c21` [Example 162, 4-[4-(1,3-benzoxazol-2-yl)piperidin-1-yl]-8-chloro-1-methyl-2-oxo-1,2-dihydroquinoline-3-carbonitrile] here?
Its IC50 is 134 nM.

How did the IC50 turn out when `Cc1ccc2oc(C3(C)CCN(c4c(C#N)c(=O)n(C)c5c(C#N)cccc45)CC3)nc2c1` [Example 163, 1-methyl-4-[4-methyl-4-(5-methyl-1,3-benzoxazol-2-yl)piperidin-1-yl]-2-oxo-1,2-dihydroquinoline-3,8-dicarbonitrile] was run?
Its IC50 is 146 nM.

How did the IC50 turn out when `Cc1ccc2oc(C3(C)CCN(c4c(C#N)c(=O)n(C)c5c(S(C)(=O)=O)cccc45)CC3)nc2c1` [Example 164, 8-(methanesulfonyl)-1-methyl-4-[4-methyl-4-(5-methyl-1,3-benzoxazol-2-yl)piperidin-1-yl]-2-oxo-1,2-dihydroquinoline-3-carbonitrile] was run?
The IC50 was 1.1 nM.

`Cc1ccc2c(c1)c(N1CCC(c3nc4ccccc4o3)CC1)c(C#N)c(=O)n2C` [Example 165, 4-[4-(1,3-benzoxazol-2-yl)piperidin-1-yl]-1,6-dimethyl-2-oxo-1,2-dihydroquinoline-3-carbonitrile] was tested. Which IC50 did it give?
Its IC50 is 2.6 nM.

For `Cc1ccc2oc(C3CCN(c4c(C#N)c(=O)n(C)c5ccc(C)cc45)CC3)nc2c1` [Example 166, 1,6-dimethyl-4-[4-(5-methyl-1,3-benzoxazol-2-yl)piperidin-1-yl]-2-oxo-1,2-dihydroquinoline-3-carbonitrile], which IC50 is on record?
Its IC50 is 2.2 nM.

How did the IC50 turn out when `COc1ccc(C2CCN(c3c(C#N)c(=O)n(C)c4ccc(Br)cc34)CC2)cc1` [Example 167, 6-bromo-4-[4-(4-methoxyphenyl)piperidin-1-yl]-1-methyl-2-oxo-1,2-dihydroquinoline-3-carbonitrile] was run?
The IC50 was 3.2 nM.
